Measurements published in US20260364184A1, “COMPOUND BASED ON OXOISOINDOLINYL-SUBSTITUTED TETRAHYDROPYRIMIDINE-DIONE AND USE THEREOF” (GLUETACS THERAPEUTICS (SHANGHAI) CO., LTD., priority 2023, published 2026).
Read-outs that look alike come from different tables or passages of the source.

What was measured:
Assay type in all cases: cell-based
[1] = test system: Human diffuse large B-cell lymphoma cell line (TMD8); test: Inhibition of TMD8 cell proliferation (CellTiter luminescent viability); details: Homo sapiens, TMD8, 96 h; for inhibition at 0.01 µM: TMD8, 10 nM, read-out: Inhibition Rate at 10 nM (%); for inhibition at 0.5 µM: TMD8, 500 nM, read-out: Inhibition Rate at 500 nM (%)
Experimental: (§1) The tumor cells used herein were cultured in a cell culture medium listed in table 3 at 37 °C in an incubator with 5% CO2. Prior to experimentation, all cell lines used were correctly identified by STR profiling, and tested negative for mycoplasma contamination using a mycoplasma detection kit through routine screenings.
(§2) The IC50 values of the compounds of the present disclosure (including the compounds in Table 1, Table 2, and Examples 1-468) were determined using the CellTiter-Meiluncell Luminescent Cell Viability Assay Kit from Dalian Meilun Biotech Co., Ltd. The detailed procedure is as follows: Tumor cells were seeded in 96-well cell culture plates at the densities specified in Table 4. On the following day, the test compounds of the present disclosure were subjected to serial dilution. The dilution can be performed according to one of the following two methods: • (1) The first dilution method: The test compounds of the present disclosure (including the compounds in Table 1, Table 2, and Examples 1-468) were subjected to 5-fold serial dilutions starting from a highest concentration of 2000 μM, resulting in a total of 9 concentrations from high to low (2000, 400, 80, 16, 3.2, 0.64, 0.128, 0.0256, 0.00512 μM). Subsequently, 0.5 μL of the test compound dilution was transferred into the 96-well plate containing the cells, with each well containing 100 μL of cell culture medium. […] Into the 96-well plate, the diluted test compounds and corresponding detection reagents were added, resulting in final test compound concentrations of 500 nM and 10 nM, respectively. The experimental procedure is described below using the diluted 2 μM test compound as an example.
(§3) 0.5 μL of the aforementioned diluted compound of the present disclosure (including the compounds in Table 1, Table 2, and Examples 1-468) was added to the seeded cells in 100 μL of medium, yielding a final test compound concentration of 10 nM. After the cells were treated with the compounds of the present disclosure for a specified period, the cell viability assay reagent was added to the culture medium according to the kit's instructions to determine cell viability. […] All controls were treated using the same procedure as the compounds of the present disclosure. The growth inhibition curves for the compounds of the present disclosure were plotted using Prism GraphPad software, and the IC50 values were calculated therefrom.

[2] = test system: Human acute lymphocytic leukemia T lymphocytes cell line (CCRF-CEM); test: Inhibition of CCRF-CEM cell proliferation (CellTiter luminescent viability); details: Homo sapiens, 96 h, Table IF2, AR inhibitor-based; for inhibition at 0.01 µM: 10 nM, read-out: Inhibition Rate at 10 nM (%); for inhibition at 0.5 µM: 500 nM, read-out: Inhibition Rate at 500 nM (%)
Experimental: as §1, §2, §3

[3] = test system: Human Multiple myeloma cell line (MM.1S); test: Inhibition of MM.1S cell proliferation (CellTiter luminescent viability); details: Homo sapiens, MM1.S, Table IJ1, Tau inhibitor-based, 96 hours; for inhibition at 0.01 µM: 10 nM, read-out: Inhibition Rate at 10 nM (%); for inhibition at 0.5 µM: 500 nM, read-out: Inhibition Rate at 500 nM (%)
Procedure, shortened: (§4)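 IC50 is fitted from luminescent viability (CellTiter-Meiluncell) curves. Nine-point, 5-fold dilution series (top stock 2000 μM) are added at 0.5 μL per 100 μL medium to cells plated the day before, with growth at 37 °C and 5% CO2.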

[4] = test system: Human myeloid monocytic leukemia cell line (MV-4-11); test: Inhibition of MV-4-11 cell proliferation (CellTiter luminescent viability); details: Homo sapiens, MV4-11, Table IJ2, Tau inhibitor-based, 96 hours; for inhibition at 0.01 µM: MV-4-11, 10 nM, read-out: Inhibition Rate at 10 nM (%); for inhibition at 0.5 µM: MV-4-11, 500 nM, read-out: Inhibition Rate at 500 nM (%)
Procedure, shortened: as §4

| SMILES | inhibition at 0.01 µM ([1]; Table IF1, AR inhibitor-based) | inhibition at 0.5 µM ([1]; Table IF1, AR inhibitor-based) | inhibition at 0.01 µM ([1]; Table IJ3, Tau inhibitor-based) | inhibition at 0.5 µM ([1]; Table IJ3, Tau inhibitor-based) | inhibition at 0.01 µM [4] | inhibition at 0.5 µM [4] | other results |
| --- | --- | --- | --- | --- | --- | --- | --- |
| N#Cc1ccc(O[C@H]2CC[C@H](NC(=O)c3ccc(N4CCC(CN5CCN(c6ccc7c(c6F)C(=O)N(N6CCC(=O)NC6=O)C7=O)CC5)CC4)nn3)CC2)cc1Cl [GT-05232, N-((1r,4r)-4-(3-chloro-4-cyanophenoxy)cyclohexyl)-6-(4-((4-(2-(2,4-dioxotetrahydropyrimidin-1(2H)-yl)-4-fluoro-1,3-dioxoisoindolin-5-yl)piperazin-1-yl)methyl)piperidin-1-yl)pyridazine-3-carboxamide] | 10 to 15% | 25 to 30% |  |  |  |  |  |
| CC1(C)[C@H](NC(=O)c2ccc(N3CCC(CN4CCN(c5cc6c(cc5F)C(=O)N(N5CCC(=O)NC5=O)C6=O)CC4)CC3)nc2)C(C)(C)[C@H]1Oc1ccc(C#N)c(Cl)c1 [GT-05304, N-((1r,3r)-3-(3-chloro-4-cyanophenoxy)-2,2,4,4-tetramethylcyclobutyl)-6-(4-((4-(2-(2,4-dioxotetrahydropyrimidin-1(2H)-yl)-6-fluoro-1,3-dioxoisoindolin-5-yl)piperazin-1-yl)methyl)piperidin-1-yl)nicotinamide] | 30 to 35% | 40 to 60% |  |  |  |  | inhibition at 0.01 µM [2]: 20 to 30%; inhibition at 0.5 µM [2]: 30 to 40% |
| CC1(C)[C@H](NC(=O)c2ccc(N3CCC(CN4CC5CC(C4)N5c4ccc5c(c4)C(=O)N(N4CCC(=O)NC4=O)C5=O)CC3)nc2)C(C)(C)[C@H]1Oc1ccc(C#N)c(Cl)c1 [GT-05306, N-((1r,3r)-3-(3-chloro-4-cyanophenoxy)-2,2,4,4-tetramethylcyclobutyl)-6-(4-((6-(2-(2,4-dioxotetrahydropyrimidin-1(2H)-yl)-1,3-dioxoisoindolin-5-yl)-3,6-diazabicyclo[3.1.1]heptan-3-yl)methyl)piperidin-1-yl)nicotinamide] | 10 to 15% | 20 to 25% |  |  |  |  | inhibition at 0.01 µM [2]: 15 to 20%; inhibition at 0.5 µM [2]: 20 to 30% |
| CC1(C)[C@H](NC(=O)c2ccc(N3CCC(CN4CCN(C5CCN(c6ccc7c(c6)C(=O)N(N6CCC(=O)NC6=O)C7=O)CC5(F)F)CC4)CC3)nc2)C(C)(C)[C@H]1Oc1ccc(C#N)c(Cl)c1 (stereo partly shown) [GT-05347, N-((1r,3r)-3-(3-chloro-4-cyanophenoxy)-2,2,4,4-tetramethylcyclobutyl)-6-(4-((4-(1-(2-(2,4-dioxotetrahydropyrimidin-1(2H)-yl)-1,3-dioxoisoindolin-5-yl)-3,3-difluoropiperidin-4-yl)piperazin-1-yl)methyl)piperidin-1-yl)nicotinamide] | 5 to 10% | 20 to 25% |  |  |  |  |  |
| O=C1CCN(N2C(=O)c3ccc(COc4ccc(Cl)cc4-c4nc5cc(C(F)(F)F)cc(Cl)c5[nH]4)cc3C2=O)C(=O)N1 [GT-06478, 5-((4-chloro-2-(7-chloro-5-(trifluoromethyl)-1H-benzo[d]imidazol-2-yl)phenoxy)methyl)-2-(2,4-dioxotetrahydropyrimidin-1(2H)-yl)isoindoline-1,3-dione] | 15 to 20% | 30 to 35% |  |  |  |  |  |
| Cn1c2ccncc2c2ccc(-c3cnc(N4CCN(CC5CCN(c6ccc7c(c6)C(=O)N(N6CCC(=O)NC6=O)C7=O)CC5)CC4)c(C(F)(F)F)c3)cc21 [GT-08553, 2-(2,4-dioxotetrahydropyrimidin-1(2H)-yl)-5-(4-((4-(5-(5-methyl-5H-pyrido[4,3-b]indol-7-yl)-3-(trifluoromethyl)pyridin-2-yl)piperazin-1-yl)methyl)piperidin-1-yl)isoindoline-1,3-dione] |  |  | 10 to 15% | 40 to 50% |  |  |  |
| O=C1CCN(N2C(=O)c3cccc(N4CCC(CN5CCN(c6ccc(-c7ccc8c(c7)[nH]c7ccncc78)cn6)CC5)CC4)c3C2=O)C(=O)N1 [GT-08557, 4-(4-((4-(5-(5H-pyrido[4,3-b]indol-7-yl)pyridin-2-yl)piperazin-1-yl)methyl)piperidin-1-yl)-2-(2,4-dioxotetrahydropyrimidin-1(2H)-yl)isoindoline-1,3-dione] |  |  | 0 to 5% | 60 to 70% |  |  | inhibition at 0.01 µM [3]: 30 to 40%; inhibition at 0.5 µM [3]: 50 to 60% |
| Cn1c2ccncc2c2ccc(-c3ccc(N4CCN(CC5CCN(c6cccc7c6C(=O)N(N6CCC(=O)NC6=O)C7=O)CC5)CC4)nc3)cc21 [GT-08558, 2-(2,4-dioxotetrahydropyrimidin-1(2H)-yl)-4-(4-((4-(5-(5-methyl-5H-pyrido[4,3-b]indol-7-yl)pyridin-2-yl)piperazin-1-yl)methyl)piperidin-1-yl)isoindoline-1,3-dione] |  |  | 5 to 10% | 80 to 100% | -5 to 0% | 50 to 60% |  |
| Cc1cc(-c2ccc3c4cnccc4n(C)c3c2)cnc1N1CCN(CC2CCN(c3cccc4c3C(=O)N(N3CCC(=O)NC3=O)C4=O)CC2)CC1 [GT-08563, 2-(2,4-dioxotetrahydropyrimidin-1(2H)-yl)-4-(4-((4-(3-methyl-5-(5-methyl-5H-pyrido[4,3-b]indol-7-yl)pyridin-2-yl)piperazin-1-yl)methyl)piperidin-1-yl)isoindoline-1,3-dione] |  |  | 15 to 20% | 80 to 100% | 15 to 20% | 80 to 100% | inhibition at 0.01 µM [3]: 15 to 20%; inhibition at 0.5 µM [3]: 60 to 70% |
| Cn1c2ccncc2c2ccc(-c3cnc(N4CCN(CC5CCN(c6cccc7c6C(=O)N(N6CCC(=O)NC6=O)C7=O)CC5)CC4)c(Cl)c3)cc21 [GT-08564, 4-(4-((4-(3-chloro-5-(5-methyl-5H-pyrido[4,3-b]indol-7-yl)pyridin-2-yl)piperazin-1-yl)methyl)piperidin-1-yl)-2-(2,4-dioxotetrahydropyrimidin-1(2H)-yl)isoindoline-1,3-dione] |  |  | 10 to 15% | 80 to 100% | 0 to 5% | 70 to 80% |  |
